# Measurements as given in PubChem BioAssay AID180 (DTP/NCI, 2004).
# Values joined by “and” are separate entries in the source; they are usually repeats but may differ in a detail not shown here. Equal entries are not always repeated.
# Test system: BDF1 mice, Adenocarcinoma 755 s.c., tumor weight T/C
# Assay: NCI In Vivo Anticancer Drug Screen. Data for tumor model Adenocarcinoma 755 (subcutaneous) in B6D2F1 (BDF1) mice
# Conditions: endpoint: mean tumor weight, higher = larger tumour
# How it was run: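 Compound activity was tested in mice carrying transplanted tumors. Survival or tumor size was measured, and each value is the treated-group measurement divided by that of the vehicle-treated control group (T/C).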
# [1] = dose: 30.0 mg/kg/injection, schedule: Q01DX011 (ip), vehicle: carboxymethylcellulose (CMC)
# [2] = dose: 50.0 mg/kg/injection, schedule: Q01DX011 (ip), vehicle: carboxymethylcellulose (CMC)
# [3] = dose: 60.0 mg/kg/injection, schedule: Q01DX011 (ip), vehicle: carboxymethylcellulose (CMC)
# [4] = dose: 100.0 mg/kg/injection, schedule: Q01DX011 (ip), vehicle: carboxymethylcellulose (CMC)
# [5] = dose: 120.0 mg/kg/injection, schedule: Q01DX011 (ip), vehicle: carboxymethylcellulose (CMC)
# [6] = dose: 200.0 mg/kg/injection, schedule: Q01DX011 (ip), vehicle: carboxymethylcellulose (CMC)
# [7] = dose: 240.0 mg/kg/injection, schedule: Q01DX011 (ip), vehicle: carboxymethylcellulose (CMC)
# [8] = dose: 25.0 mg/kg/injection, schedule: Q01DX011 (ip), vehicle: saline
# [9] = dose: 50.0 mg/kg/injection, schedule: Q01DX011 (ip), vehicle: saline
# [10] = dose: 125.0 mg/kg/injection, schedule: Q01DX011 (ip), vehicle: carboxymethylcellulose (CMC)
# [11] = dose: 250.0 mg/kg/injection, schedule: Q01DX011 (ip), vehicle: carboxymethylcellulose (CMC)
# [12] = dose: 500.0 mg/kg/injection, schedule: Q01DX011 (ip), vehicle: carboxymethylcellulose (CMC)
structure (smiles),measurement,setting,value
CCOC=Nc1c(N)ncnc1Cl,T/C,[1],67 % of control
same,T/C,[2],107 % of control
same,T/C,[3],34 % of control
same,T/C,"dose: 62.5 mg/kg/injection, schedule: Q01DX011 (ip), vehicle: olive oil, sesame oil, peanut oil",62 % of control
same,T/C,[4],60 % of control
same,T/C,[5],10 % of control
same,T/C,"dose: 125.0 mg/kg/injection, schedule: Q01DX011 (ip), vehicle: olive oil, sesame oil, peanut oil",65 % of control
same,T/C,[6],38 % of control
same,T/C,[7],2 % of control
same,T/C,"dose: 250.0 mg/kg/injection, schedule: Q01DX011 (ip), vehicle: olive oil, sesame oil, peanut oil",43 % of control
same,T/C,"dose: 400.0 mg/kg/injection, schedule: Q01DX011 (ip), vehicle: carboxymethylcellulose (CMC)",11 % of control
same,T/C,"dose: 500.0 mg/kg/injection, schedule: Q01DX011 (ip), vehicle: olive oil, sesame oil, peanut oil",23 % of control
Nc1nc(N)c(N=O)c(Nc2ccc(I)cc2)n1,T/C,"dose: 0.5 mg/kg/injection, schedule: Q01DX011 (ip), vehicle: carboxymethylcellulose (CMC)",70 % of control
same,T/C,"dose: 1.0 mg/kg/injection, schedule: Q01DX011 (ip), vehicle: carboxymethylcellulose (CMC)",79 % of control and 80 % of control
same,T/C,"dose: 2.0 mg/kg/injection, schedule: Q01DX011 (ip), vehicle: carboxymethylcellulose (CMC)",62 % of control
same,T/C,"dose: 8.0 mg/kg/injection, schedule: Q01DX011 (ip), vehicle: carboxymethylcellulose (CMC)",34 % of control and 54 % of control and 59 % of control
same,T/C,"dose: 32.0 mg/kg/injection, schedule: Q01DX011 (ip), vehicle: carboxymethylcellulose (CMC)",25 % of control and 28 % of control and 40 % of control
same,T/C,"dose: 64.0 mg/kg/injection, schedule: Q01DX011 (ip), vehicle: carboxymethylcellulose (CMC)",17 % of control
same,T/C,"dose: 128.0 mg/kg/injection, schedule: Q01DX011 (ip), vehicle: carboxymethylcellulose (CMC)",10 % of control
Nc1nc(N)c2[nH]c(N=Nc3ccc(N(CCO)CCO)cc3)nc2n1,T/C,"dose: 37.5 mg/kg/injection, schedule: Q01DX011 (ip), vehicle: saline",152 % of control
same,T/C,"dose: 150.0 mg/kg/injection, schedule: Q01DX011 (ip), vehicle: saline",65 % of control
CC(O)CNc1ncnc2c1cnn2C (stereo not drawn),T/C,"dose: 12.5 mg/kg/injection, schedule: Q01DX011 (ip), vehicle: saline",94 % of control
same,T/C,[8],30 % of control
same,T/C,[9],10 % of control
Oc1ccc2ccccc2c1N=Nc1ccccc1,T/C,[9],69 % of control
same,T/C,"dose: 100.0 mg/kg/injection, schedule: Q01DX011 (ip), vehicle: saline",55 % of control
same,T/C,"dose: 200.0 mg/kg/injection, schedule: Q01DX011 (ip), vehicle: saline",50 % of control
CN(C)c1ccc(/C=C/C2=[N+](C)c3ccccc3C2(C)C)cc1,T/C,"dose: 2.0 mg/kg/injection, schedule: Q01DX011 (ip), vehicle: other",81 % of control
O=C(CCBr)Nc1ccc(NC(=O)CCBr)cc1,T/C,"dose: 56.0 mg/kg/injection, schedule: Q01DX011 (ip), vehicle: methylcellulose (MC)",113 % of control
same,T/C,"dose: 113.0 mg/kg/injection, schedule: Q01DX011 (ip), vehicle: methylcellulose (MC)",108 % of control
same,T/C,"dose: 225.0 mg/kg/injection, schedule: Q01DX011 (ip), vehicle: methylcellulose (MC)",100 % of control
same,T/C,"dose: 450.0 mg/kg/injection, schedule: Q01DX011 (ip), vehicle: methylcellulose (MC)",117 % of control
CS(=O)(=O)OCC1OC(O)CC1O (stereo not drawn),T/C,[8],113 % of control
same,T/C,"dose: 75.0 mg/kg/injection, schedule: Q01DX011 (ip), vehicle: saline",153 % of control
C1CN1P1(N2CC2)=NP(N2CC2)(N2CC2)=NP(N2CC2)(N2CC2)=N1,T/C,"dose: 3.0 mg/kg/injection, schedule: Q01DX011 (ip), vehicle: carboxymethylcellulose (CMC)",60 % of control
same,T/C,"dose: 6.0 mg/kg/injection, schedule: Q01DX011 (ip), vehicle: carboxymethylcellulose (CMC)",43 % of control
same,T/C,"dose: 6.0 mg/kg/injection, schedule: Q01DX011 (ip), vehicle: methylcellulose (MC)",17 % of control and 21 % of control
same,T/C,"dose: 12.0 mg/kg/injection, schedule: Q01DX011 (ip), vehicle: carboxymethylcellulose (CMC)",9 % of control
OCCn1cnc2c(SCc3ccccc3)ncnc21,T/C,"dose: 12.5 mg/kg/injection, schedule: Q01DX011 (ip), vehicle: methylcellulose (MC)",108 % of control
same,T/C,"dose: 25.0 mg/kg/injection, schedule: Q01DX011 (ip), vehicle: methylcellulose (MC)",17 % of control
same,T/C,"dose: 50.0 mg/kg/injection, schedule: Q01DX011 (ip), vehicle: methylcellulose (MC)",3 % of control
same,T/C,"dose: 75.0 mg/kg/injection, schedule: Q01DX011 (ip), vehicle: methylcellulose (MC)",3 % of control
same,T/C,"dose: 100.0 mg/kg/injection, schedule: Q01DX011 (ip), vehicle: methylcellulose (MC)",1 % of control
O=P(N1CCCCC1)(N1CC1)N1CC1,T/C,"dose: 1.8 mg/kg/injection, schedule: Q01DX011 (ip), vehicle: carboxymethylcellulose (CMC)",68 % of control
same,T/C,"dose: 1.8 mg/kg/injection, schedule: Q01DX011 (ip), vehicle: saline",44 % of control
same,T/C,"dose: 3.5 mg/kg/injection, schedule: Q01DX011 (ip), vehicle: carboxymethylcellulose (CMC)",92 % of control
same,T/C,"dose: 3.5 mg/kg/injection, schedule: Q01DX011 (ip), vehicle: saline",38 % of control
same,T/C,"dose: 7.0 mg/kg/injection, schedule: Q01DX011 (ip), vehicle: saline",15 % of control
same,T/C,"dose: 14.0 mg/kg/injection, schedule: Q01DX011 (ip), vehicle: carboxymethylcellulose (CMC)",45 % of control
O=C(O)CCC(=O)CCl,T/C,"dose: 34.0 mg/kg/injection, schedule: Q01DX011 (ip), vehicle: methylcellulose (MC)",46 % of control
O=c1[nH]cnc2c1ncn2C1CCCO1 (stereo not drawn),T/C,[1],80 % of control
same,T/C,[3],105 % of control
same,T/C,[5],106 % of control
same,T/C,[7],75 % of control
CSc1nc(N)nc2c1n(C)c[n+]2C,T/C,[1],97 % of control
same,T/C,[3],99 % of control
same,T/C,[5],66 % of control
same,T/C,[7],89 % of control
NC(=O)NO,T/C,"dose: 15.97 mg/kg/injection, schedule: Q01DX011 (ip), vehicle: carboxymethylcellulose (CMC)",76 % of control
same,T/C,"dose: 25.0 mg/kg/injection, schedule: Q01DX011 (ip), vehicle: carboxymethylcellulose (CMC)",111 % of control
same,T/C,"dose: 31.93 mg/kg/injection, schedule: Q01DX011 (ip), vehicle: carboxymethylcellulose (CMC)",67 % of control
same,T/C,[2],83 % of control
same,T/C,"dose: 51.08 mg/kg/injection, schedule: Q01DX011 (ip), vehicle: carboxymethylcellulose (CMC)",56 % of control
same,T/C,"dose: 62.5 mg/kg/injection, schedule: Q01DX011 (ip), vehicle: carboxymethylcellulose (CMC)",31 % of control
same,T/C,"dose: 63.85 mg/kg/injection, schedule: Q01DX011 (ip), vehicle: carboxymethylcellulose (CMC)",41 % of control and 47 % of control
same,T/C,"dose: 85.13 mg/kg/injection, schedule: Q01DX011 (ip), vehicle: carboxymethylcellulose (CMC)",53 % of control
same,T/C,[4],58 % of control
same,T/C,[10],44 % of control
same,T/C,"dose: 127.7 mg/kg/injection, schedule: Q01DX011 (ip), vehicle: carboxymethylcellulose (CMC)",22 % of control and 39 % of control
same,T/C,[6],13 % of control
same,T/C,[11],6 % of control and 12 % of control and 19 % of control
same,T/C,[12],19 % of control
CCCCCCCCn1cnc2c(=S)nc[nH]c21,T/C,[10],84 % of control
same,T/C,[11],67 % of control
same,T/C,[12],102 % of control
Nc1nc(Oc2ccc(Cl)cc2)c2n[nH]nc2n1,T/C,[6],66 % of control
CC(=O)[C@H]1CC[C@H]2[C@@H]3CCC4=CC(=O)CC[C@]4(C)[C@H]3CC[C@]12C,T/C,"dose: 250.0 mg/kg/injection, schedule: Q01DX011 (sc), vehicle: steriod suspending solution",97 % of control
same,T/C,"dose: 500.0 mg/kg/injection, schedule: Q01DX011 (sc), vehicle: steriod suspending solution",46 % of control
CC(=O)OCC(=O)[C@@]1(O)CC[C@H]2[C@@H]3CCC4=CC(=O)C=C[C@]4(C)[C@H]3[C@@H](O)C[C@@]21C,T/C,"dose: 20.0 mg/kg/injection, schedule: Q01DX011 (sc), vehicle: steriod suspending solution",23 % of control and 26 % of control
same,T/C,"dose: 40.0 mg/kg/injection, schedule: Q01DX011 (sc), vehicle: steriod suspending solution",24 % of control and 26 % of control
same,T/C,"dose: 67.5 mg/kg/injection, schedule: Q01DX011 (sc), vehicle: steriod suspending solution",30 % of control
same,T/C,"dose: 80.0 mg/kg/injection, schedule: Q01DX011 (sc), vehicle: steriod suspending solution",88 % of control
same,T/C,"dose: 160.0 mg/kg/injection, schedule: Q01DX011 (sc), vehicle: steriod suspending solution",40 % of control
